Assay [1] has as its target T1, hDNA2 (Homo sapiens, UniProt P51530).
T1 construct: made in house
T1 sequence (P51530 1-1060): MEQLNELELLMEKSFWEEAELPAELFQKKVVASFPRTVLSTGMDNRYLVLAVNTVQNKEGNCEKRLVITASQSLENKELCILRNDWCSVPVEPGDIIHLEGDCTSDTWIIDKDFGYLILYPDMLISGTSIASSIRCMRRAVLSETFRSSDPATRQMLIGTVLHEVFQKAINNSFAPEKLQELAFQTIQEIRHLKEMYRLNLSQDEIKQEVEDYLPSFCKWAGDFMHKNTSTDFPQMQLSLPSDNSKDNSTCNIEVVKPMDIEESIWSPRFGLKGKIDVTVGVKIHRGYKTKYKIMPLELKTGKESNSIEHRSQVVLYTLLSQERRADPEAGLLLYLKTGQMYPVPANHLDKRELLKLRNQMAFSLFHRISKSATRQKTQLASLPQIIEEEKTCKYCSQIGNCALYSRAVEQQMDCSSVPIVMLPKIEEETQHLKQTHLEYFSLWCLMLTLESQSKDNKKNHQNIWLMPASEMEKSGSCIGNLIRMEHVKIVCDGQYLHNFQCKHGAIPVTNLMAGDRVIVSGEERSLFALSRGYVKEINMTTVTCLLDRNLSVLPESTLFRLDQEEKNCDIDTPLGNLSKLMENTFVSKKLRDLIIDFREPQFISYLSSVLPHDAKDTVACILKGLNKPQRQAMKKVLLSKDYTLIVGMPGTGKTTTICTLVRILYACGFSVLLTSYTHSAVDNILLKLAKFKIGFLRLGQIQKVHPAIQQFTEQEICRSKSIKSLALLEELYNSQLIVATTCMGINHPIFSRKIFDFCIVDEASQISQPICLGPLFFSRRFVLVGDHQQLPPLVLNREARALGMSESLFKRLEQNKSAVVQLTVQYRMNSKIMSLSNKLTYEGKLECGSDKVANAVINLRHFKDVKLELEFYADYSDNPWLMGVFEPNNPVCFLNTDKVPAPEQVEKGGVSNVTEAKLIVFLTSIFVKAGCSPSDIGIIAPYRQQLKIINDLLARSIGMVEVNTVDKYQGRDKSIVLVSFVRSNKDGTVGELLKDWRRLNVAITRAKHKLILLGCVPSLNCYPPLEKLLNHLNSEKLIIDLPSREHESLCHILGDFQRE
The experiment in a line: 5' flap processing by hDNA2. The assay is classed as biochemical. As to conditions: DNA2 […], Y DNA substrate 5 nM ends. Here is the method: Nuclease assays were performed in buffer R (20 mM Na-HEPES pH 7.5, 1 mM ATP, 0.1 mM DTT, 100 μg/ml bovine serum albumin, 0.05% Triton X-100, 2 mM MgCl2, 100 mM KCl) and contained 0.5 nM ends (2-kb substrate) or 5 nM ends (the ssDNA oligonucleotide PSOL6929) of DNA. Reactions containing Bloom syndrome also included an ATP regenerating system consisting of 10 mM creatine phosphate and 50 μg/ml creatine kinase. In control reactions, DMSO was used in place of the inhibitor. Reactions with DNA2 alone were incubated at 30 °C, and those with DNA2-Bloom syndrome-Replication protein A and EXO1 were incubated at 37 °C for the indicated times. […] Gels were dried onto DEAE paper on top of Whatman filter paper (GE, Issaquah, WA, USA) and then analyzed in a BioRad Personal Molecular Imager FX phosphorimager. Band intensity was quantified using Image Lab software (Bio-Rad, Hercules, CA, USA). The fraction of DNA substrate digested was determined by measuring the amount of substrate remaining and normalizing to the total substrate in the negative control lane containing no protein.
Figure S2. […] (b) Plots showing quantitation of the experiments shown in a. […] (d) Plots showing quantitation of the experiments shown in c. […] (f) Plot showing quantitation of the experiment in e. […]

The target in assay [2] is T1, hDNA2. Kind of assay: ATPase activity of hDNA2 (TLC). As to conditions: inhibitor 10 µM, 100 nM hDNA2. The assay is classed as biochemical. As for the experimental part:
Figure S2. […] (a) Analysis of 5’ flap processing by hDNA2 in presence of the compounds at the indicated concentration. DNA2 (2.5 nM) was incubated with the Y DNA substrate (5 nM ends) and the indicated concentration of inhibitor. (b) Plots showing quantitation of the experiments shown in a. Plotted are the average data from three independent experiments with the error bars representing one standard deviation. (c) Analysis of dsDNA unwinding by BLM. BLM (4, 8 and 16 nM), RPA (100 nM) and internally radiolabelled dsDNA (0.5 nM ends) was incubated for 20 min at 37^ºC in presence of either DMSO or NSC-105808 (10 µM) and the products were resolved on a 1% agarose gel. (d) Plots showing quantitation of the experiments shown in c. Plotted are the average data from three independent experiments with the error bars representing one standard deviation. (e) Analysis of the degradation of a 2 kb internally labeled dsDNA (0.5 nM ends) by EXO1 (5 nM) in presence of NSC-105808 (10 µM). (f) Plot showing quantitation of the experiment in e. […] 100 nM hDNA2 was incubated with γ^32P-ATP in the presence of oligonucleotide ssDNA (200 nM) for 20 minutes at 37^ºC in presence of either DMSO or inhibitor (10 µM) and the products were resolved on a TLC plate. (h) Analysis of hDNA2 binding to DNA. […]

The text below walks through data of paper PMC5520492, “Inhibition of DNA2 nuclease as a therapeutic strategy targeting replication stress in cancer cells” (Oncogenesis, 2017).

“Also recorded” adds a separate entry of the source.

In the case of `O=C1C(=O)c2cc([N+](=O)[O-])ccc2-c2ccccc21` [NSC-5195242, 2-nitrophenanthrene-9,10-dione], on hDNA2 [1], the “5′ flap processing by hDNA2” value is listed as “inhibited”. The “Effect on ATPase activity of DNA2” value at hDNA2 [2] is given as “do not affect”.
In the same order, the values of `NC1=C(Br)C(=O)c2ncccc2C1=O` [NSC-105808, 6-amino-7-bromoquinoline-5,8-dione] are “inhibited” and “do not affect; also recorded: no effect”.
